Patent publication US20170253607A1, “LONG-ACTING HIV PROTEASE INHIBITOR” (Shionogi & Co., Ltd., priority 2014, published 2017)

target: HIV-1 PR (Human immunodeficiency virus type 1 group M subtype B, UniProt P04585); test: HIV-protease inhibitory activity assay (FRET peptide substrate); type: biochemical; settings: Test Example 1
Experimental: Test Example 1: HIV-Protease Inhibitory Activity Assay
The HIV-1 PR assay was performed by using a FRET (Fluorescence Resonance Energy Transfer) peptide substrate (AnaSpec, Inc., Fremont, Calif.). Initially in the intact FRET peptide, the fluorescence of HiLyte Fluor 488 is quenched by QXL 520. Upon substrate cleavage by PR, the fluorescence is recovered and can be monitored. Test compounds diluted in DMSO was plated to the wells of 384-well plate. Then, mixed with assay buffer (0.1 mol/L NaAc containing 0.5 mol/L NaCl, 1 mmol/L EDTA, 1 mmol/L DTT, and 0.05% Tween 20, pH 4.8) in the presence or absence of HIV-1 PR (0.83 ng), and let it stand for 5 minutes at room temperature. Background fluorescence intensity was measured and let it stand for another 15 minutes at room temperature. The enzyme reaction was started by adding substrate diluted in assay buffer at final concentration of 2 μmol/L, and let it stand for 60 minutes at room temperature. After 60 minutes, the fluorescence intensity was measured. Fluorescence intensity was measured with excitation and emission wavelengths of 485 nm and 535 nm, respectively.
IC50 values were determined using non-linear regression four-parameter logistic equation, y=A+((B−A)/(1+((C/x)̂D))) where A=minimum inhibition, B=maximum inhibition, C=log IC50, D=slope factor, x=concentration of compound and y=% inhibition.

Going from `COc1ccc(S(=O)(=O)N(CC2CCCC2)CC(O)C(Cc2ccc(NCc3cc(C(F)(F)F)ccc3-c3sc4c(c3C(=O)O)CC(C)(C)CC4)cc2)NC(=O)OC2COC3OCCC23)cc1` (stereo not drawn) [Compound I-870] to `COc1ccc(S(=O)(=O)N(CC(C)C)CC(O)C(Cc2ccc(NCC3CCCC3c3sc4c(c3C(=O)O)CC(C)(C)CC4)cc2)NC(=O)OC2COC3OCCC23)cc1` (stereo not drawn) [Compound I-878], the IC50 falls from 9.33 nM to 2.94 nM (3.2-fold).

Going from `COc1ccc(S(=O)(=O)N(CC(C)C)CC(O)C(Cc2ccc(OCc3ccccc3-c3ccc4c(O)c(-c5ccc(F)cc5)c(=O)n(-c5ccccc5)c4c3)cc2)NC(=O)OC2COC3(C)OCCC23)cc1` (stereo not drawn) [Compound I-75] to `COc1ccc(S(=O)(=O)N(CC(C)C)CC(O)C(Cc2ccc(NCc3cccc(-c4ccccc4)c3-c3sc4c(c3C(=O)O)CC(C)(C)CC4)cc2)NC(=O)OC2COC3(C)OCCC23)cc1` (stereo not drawn) [Compound I-529], the IC50 rises from 1.19 nM to 4.98 nM (4.2-fold). The first is the more potent here.

`COc1ccc(S(=O)(=O)N(CC(C)C)CC(O)C(Cc2ccc(N(C)Cc3ncccc3-c3ccccc3-c3sc4c(c3C(=O)O)CC(C)(C)CC4)cc2)NC(=O)OC2COC3(C)OCCC23)cc1` (stereo not drawn) [Compound I-477] and `COc1ccc(S(=O)(=O)N(CC(C)C)CC(O)C(Cc2ccc(N(C)Cc3ncccc3-c3cccc(-c4sc5c(c4C(=O)O)CC(C)(C)CC5)c3)cc2)NC(=O)OC2COC3(C)OCCC23)cc1` (stereo not drawn) [Compound I-512] are within 1.5-fold of each other in IC50: 2 nM for the first, 1.63 nM for the second.

Going from `COc1ccc(S(=O)(=O)N(CC(C)C)CC(O)C(Cc2ccc(N(C)Cc3ccccc3NC(=O)c3sc4c(c3C(=O)O)CC(C)(C)CC4)cc2)NC(=O)OC2COC3(C)OCCC23)cc1` (stereo not drawn) [Compound I-587] to `COc1ccc(S(=O)(=O)N(CC(C)C)CC(O)C(Cc2ccc(N(Cc3ccncc3)Cc3ccccc3-c3sc4c(c3C(=O)O)CC(C)(C)CC4)cc2)NC(=O)OC2COC3(C)OCCC23)cc1` (stereo not drawn) [Compound I-425], the IC50 rises from 1.71 nM to 2.65 nM (1.5-fold). The first is the more potent here.

`COc1ccc(S(=O)(=O)N(CC2CCCC2)CC(O)C(Cc2ccc(OCc3ccccc3-n3nc(C(=O)O)c4c3CCC(C(F)(F)F)C4)cc2)NC(=O)OC2COC3(C)OCCC23)cc1` (stereo not drawn) [Compound I-141] and `COc1ccc(S(=O)(=O)N(CC(C)C)CC(O)C(Cc2ccc(OC3CCCN(c4ccccc4-c4sc5c(c4C(=O)O)CC(C)(C)CC5)C3)cc2)NC(=O)OC2COC3(C)OCCC23)cc1` (stereo not drawn) [Compound I-100] are within 1.5-fold of each other in IC50: 1.74 nM for the first, 1.98 nM for the second.

`COc1ccc(S(=O)(=O)N(CC(C)C)CC(O)C(Cc2ccc(N3CCC(c4ccccc4-c4sc5c(c4C(=O)O)CC(C)(C)CC5)C3)cc2)NC(=O)OC2COC3(C)OCCC23)cc1` (stereo not drawn) [Compound I-523] and `COc1ccc(S(=O)(=O)N(CC(C)C)CC(O)C(Cc2ccc(NCc3ccc(-c4sc5c(c4C(=O)O)CC(C)(C)CC5)c4ccccc34)cc2)NC(=O)OC2COC3(C)OCCC23)cc1` (stereo not drawn) [Compound I-322] are within 1.5-fold of each other in IC50: 9.44 nM for the first, 10.5 nM for the second.

`COc1ccc(S(=O)(=O)N(CC(C)C)CC(O)C(Cc2ccc(NCc3ccccc3-c3ccsc3C(=O)O)cc2)NC(=O)OC2COC3(C)OCCC23)cc1` (stereo not drawn) [Compound I-498] and `CC=Cc1ccc(-c2sc3c(c2C(=O)O)CC(C)(C)CC3)c(CNc2ccc(CC(NC(=O)OC3COC4(C)OCCC34)C(O)CN(CC(C)C)S(=O)(=O)c3ccc(OC)cc3)cc2)c1` (stereo not drawn) [Compound I-723] are within 1.5-fold of each other in IC50: 1.83 nM for the first, 1.65 nM for the second.

Compared with `CN(Cc1ccccc1C(=O)Nc1sc2c(c1C(=O)O)CC(C)(C)CC2)c1ccc(CC(NC(=O)OC2COC3(C)OCCC23)C(O)CN(CC2CCCC2)S(=O)(=O)c2ccc3c(c2)OCO3)cc1` (stereo not drawn) [Compound I-681], `COc1ccc(S(=O)(=O)N(CC(C)C)CC(O)C(Cc2ccc(N(C)CC3CCCCC3c3sc4c(c3C(=O)O)CC(C)(C)CC4)cc2)NC(=O)OC2COC3(C)OCCC23)cc1` (stereo not drawn) [Compound I-358] is 2-fold lower in IC50: 7.97 nM for the first, 3.89 nM for the second. The second is the more potent here.

Going from `CC(C)CN(CC(O)C(Cc1ccc(NCc2ccccc2C(=O)Nc2sc3c(c2C(=O)O)CC(C)(C)CC3)cc1)NC(=O)OC1COC2OCCC12)S(=O)(=O)c1ccc2ncsc2c1` (stereo not drawn) [Compound I-855] to `COc1ccc(S(=O)(=O)N(CC(C)C)CC(O)C(Cc2ccc(OCc3ccc4sc(-c5ccc(F)cc5)c(C(=O)O)c4c3)cc2)NC(=O)OC2COC3OCCC23)cc1` (stereo not drawn) [Compound I-819], the IC50 falls from 2.66 nM to 0.72 nM (3.7-fold).
